Source: the supplement of paper PMC6206229
Converted amounts (≈) assume the structure as drawn.

Key:
[1] = tested on: Staphylococcus aureus ATCC 29213 (MSSA); assay: minimum inhibitory concentration; extreme values may be limits of the assay
How it was run: (§1)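 Methicillin-susceptible and methicillin-resistant Staphylococcus aureus were tested by broth microdilution in 96-well plates, following CLSI guidance with a resazurin redox read-out. Compounds were tested from 0 to 100 µM and incubated with bacteria for 24 h at 37°C, then 30 µl of 0.015% resazurin was added for 2–4 h, with positive controls on each plate. The minimum inhibitory concentration was the lowest concentration that stayed blue rather than turning pink. Runs were done at least twice in triplicate.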

[2] = tested on: Staphylococcus aureus ATCC 700699 (MRSA); assay: as above
How it was run: as §1

Row | Compound | minimum inhibitory concentration [1] [µM] | minimum inhibitory concentration [2] [µM]
1 | COc1ccc(-c2cncc3ccc(C(=O)NCCCn4ccnc4)nc23)cc1 | > 50 | > 50
2 | c1ccc(-c2[nH]c3ccccc3c2C(c2ccccn2)N2CCCC2)cc1 (stereo not drawn) | > 50 | > 50
3 | CC1CCCCN1C(=O)NCCc1coc(-c2ccc(F)cc2)n1 (stereo not drawn) | > 50 | > 50
4 | NC(CC(=O)c1ccc(Cl)cc1Cl)C(Cl)(Cl)Cl (stereo not drawn) | > 50 | > 50
5 | O=C(NCCc1ccccc1)c1cc(-c2cccnc2)cnc1NCC1CC1 | > 50 | > 50
6 | Nc1cccnc1Nc1ccc(Cl)cc1 | > 50 | > 50
7 | Cc1noc(C)c1C(=O)N1CCCC(c2[nH]c3c(C)cccc3c2-c2ccncc2)C1 (stereo not drawn) | > 50 | > 50
8 | O=C(Nc1ccnc(-c2cccnc2)n1)c1cc(C(F)(F)F)cc(C(F)(F)F)c1 | > 50 | > 50
9 | FC(F)(F)c1cnc(Sc2nnc(-c3ccncc3)o2)c(Cl)c1 | > 50 | > 50
10 | CC1CC1C(=O)NC1CCN(CC2(c3ccccc3)CCCCC2)CC1 (stereo not drawn) | > 50 | > 50
11 | CCCCc1ccc(C(=O)Nc2nccc3ccccc23)nc1 | > 50 | > 50
12 | COc1ccc(-c2nnc3ccc(-c4cccc(C(C)C)c4)cn23)cc1OC | > 50 | > 50
13 | CCS(=O)(=O)N(Cc1ccco1)Cc1cc2ccc(C)cc2nc1O | > 50 | > 50
14 | O=C(NCc1cc(Cl)cc(Cl)c1)c1c(C(F)(F)F)nc2ccccn12 | > 50 | > 50
15 | COc1cccc(OCC(=O)c2ccc(Br)cc2)c1 | > 50 | > 50
16 | CC1=NN(c2nc3ccccc3s2)C(=O)C1Cc1cccc2ccccc12 (stereo not drawn) | > 50 | > 50
17 | c1ccc(Oc2ccc(-c3cc(C4CCOCC4)[nH]n3)cc2)cc1 | > 50 | > 50
18 | CCN(CC)C(=O)N1CCN(C)CC1 | > 50 | > 50
19 | N=C(N)c1ccc(OCCCCCOc2ccc(C(=N)N)cc2)cc1 | 12.5 (≈ 4.26 µg/mL) | > 50
20 | CC(c1cc(Cl)cc(Cl)c1)N(C)c1ncc2c(N)nc(N)nc2n1 (stereo not drawn) | 50 (≈ 18.2 µg/mL) | 50 (≈ 18.2 µg/mL)
21 | O=C(c1ccc(F)cc1)N(CCNc1ccccc1)c1ccccc1 | > 50 | > 50
22 | Cc1ccc(-c2cc(C(=O)Nc3cccnc3)c3cc(Br)ccc3n2)cc1 | 50 (≈ 20.9 µg/mL) | 50 (≈ 20.9 µg/mL)
23 | CS(=O)(=O)c1ccc(C(=O)N(CC2CCCO2)c2nc3ccccc3s2)cc1[N+](=O)[O-] (stereo not drawn) | > 50 | > 50

Row | Compound | minimum inhibitory concentration [1] [µM] | minimum inhibitory concentration [2] [µM]
24 | c1ccc(Oc2ccc(-c3cc(N4CCOCC4)[nH]n3)cc2)cc1 | > 50 | > 50
25 | Clc1cccc(C(c2ccc(CN3CCNCC3)cc2)n2ccnc2)c1 (stereo not drawn) | > 50 | > 50
26 | COc1cccn2c(C(=O)N3CCCCC3)c(C(F)(F)F)nc12 | > 50 | > 50
27 | CO[C@H]1/C=C\O[C@@]2(C)Oc3c(C)c(O)c4c(O)c(/c(=C/NN5CCN(C)CC5)c(O)c4c3C2=O)=N\C(=O)/C(C)=C\C=C/[C@H](C)[C@H](O)[C@@H](C)[C@@H](O)[C@@H](C)[C@H](OC(C)=O)[C@@H]1C | 0.09 (≈ 0.0741 µg/mL) | 50 (≈ 41.1 µg/mL)
28 | O=C(c1cc2ccccc2o1)N1CCN(Cc2ccc3c(c2)OCO3)CC1 | > 50 | > 50
29 | O=C(Nc1nc(-c2ccccn2)cs1)c1cncn1-c1ccccc1 | > 50 | > 50
30 | Cc1cc(C)cc(COc2ccc3c(C)c(CCC(=O)O)c(=O)oc3c2C)c1 | > 50 | > 50
31 | Brc1c(-c2ccc3c(c2)OCO3)nc2ncccn12 | > 50 | > 50
32 | Cc1cc(NCCc2ccccc2)nc(NC(=N)Nc2ccc(Cl)cc2)n1 | 25 (≈ 9.52 µg/mL) | 25 (≈ 9.52 µg/mL)
33 | CS(=O)(=O)N1CCC(CCn2nc(Cc3cccc4ccccc34)c3c(N)ncnc32)CC1 | > 50 | > 50
34 | CCc1cc(=O)n(C)c(SC(C)C(=O)Nc2ccc(F)cc2)n1 (stereo not drawn) | > 50 | > 50
35 | CC(C)(C)c1cc(C(=O)Nc2cccnc2)cc(C(=O)Nc2cccnc2)c1 | > 50 | > 50
36 | Cc1ccc(NC(=O)c2cc(S(=O)(=O)NC(C)(C)C)ccc2C)nc1 | > 50 | > 50
37 | CNc1cc(C)nc(C2CN(C(=O)c3n[nH]c4ccccc34)CCO2)c1 (stereo not drawn) | > 50 | > 50
38 | COC(=O)c1cccc2oc(-c3cccc(OC)c3NC(=O)c3cc(-c4ccccc4)on3)nc12 | > 50 | > 50
39 | O=C(N[C@H](Cc1ccccc1)C(=O)Nc1ccccc1N1CCOCC1)c1cccs1 | > 50 | > 50
40 | CC(=O)OCC1OC([S-])C(OC(C)=O)C(OC(C)=O)C1OC(C)=O.CCP(CC)CC.[Au+] (stereo not drawn) | 0.39 | 0.78
41 | Cc1cc(C2=NOC(c3cc(Cl)c(F)c(Cl)c3)(C(F)(F)F)C2)ccc1C(=O)NCc1ccc2c(c1)C(C)(C)OB2O (stereo not drawn) | > 50 | > 50
42 | Nc1ncc(-c2cn[nH]c2)cc1-c1nc2cc(Cl)cnc2[nH]1 | > 50 | > 50
43 | Cc1nc(-c2ccccn2)nc(N2CCC(Cc3ccccc3)C2)c1Cl (stereo not drawn) | > 50 | > 50
44 | O=C(OCc1ccccc1)N1CCC(c2cc(-c3ccncc3)c(-c3ccc(F)cc3)[nH]2)CC1 | > 50 | > 50
45 | O=C(NC1CC1)c1ccc(CSCc2ccccc2Cl)o1 | > 50 | > 50
46 | O=C(NC1CCN(c2ccnc3ccccc23)C1)c1cccc(C(F)(F)F)c1 (stereo not drawn) | > 50 | > 50

Row | Compound | minimum inhibitory concentration [1] [µM] | minimum inhibitory concentration [2] [µM]
47 | COc1ccc(Oc2ccc([C@@H](C)N(C)c3ncc4c(N)nc(N)nc4n3)cc2)cc1 | > 50 | > 50
48 | CC(=O)NC[C@H]1CN(c2ccc(N3CCSCC3)c(F)c2)C(=O)O1 | 6.25 (≈ 2.21 µg/mL) | 3.12 (≈ 1.1 µg/mL)
49 | O=C(CCC1CCCCC1)Nc1cccc(-c2nnc(-c3ccco3)o2)c1 | > 50 | > 50
50 | CN1CCCC1CCO[C@](C)(c1ccccc1)c1ccc(Cl)cc1 (stereo partly drawn) | > 50 | 50 (≈ 17.2 µg/mL)
51 | CN1CCN(S(=O)(=O)c2ccc(-c3ccc4c(Nc5ccc6nn[nH]c6c5)ccnc4c3)cc2)CC1 | > 50 | > 50
52 | O=C(NCCN1CCCC1)c1cc(NCCN2CCOCC2)nc2ccc(Cl)cc12 | 50 (≈ 21.6 µg/mL) | 50 (≈ 21.6 µg/mL)
53 | COc1cc(NC(C)CCCN)c2ncccc2c1 (stereo not drawn) | > 50 | > 50
54 | Cc1nc2ccccn2c1C(=O)NCc1ccc(Cl)cc1 | > 50 | > 50
55 | Nc1nccc2ccc(Oc3ccncc3)cc12 | 50 (≈ 11.9 µg/mL) | 50 (≈ 11.9 µg/mL)
56 | CC(=O)Nc1ccc(-c2noc(CC3CCCN(Cc4cccc(F)c4C)C3)n2)cc1 (stereo not drawn) | > 50 | > 50
57 | CCOc1ccc(-c2nc(CNCCc3ccc(F)cc3)cs2)cc1 | > 50 | > 50
58 | O=C([C@@H](c1ccc(Cl)cc1)c1cccnc1)N1CCN(c2ccc(C(F)(F)F)cc2)CC1 | 50 (≈ 23 µg/mL) | 50 (≈ 23 µg/mL)
59 | C[C@]1(O)C[C@@H](c2nc(-c3ccc4ccc(-c5ccccc5)nc4c3)c3c(N)nccn32)C1 | > 50 | > 50
60 | CC(C)C(C(=O)Nc1ccc(S(=O)(=O)N(C)C)cc1)c1ccc(Cl)cc1 (stereo not drawn) | > 50 | > 50
61 | CN1CCN(S(=O)(=O)c2ccc(-c3ccc4c(Nc5ncc(Cl)cn5)ccnc4c3)cc2)CC1 | > 50 | > 50
62 | Cc1cc(C(=O)Nc2cnn(Cc3ccc(Cl)cc3Cl)c2)no1 | > 50 | > 50
63 | CC(C)(C)C(=O)N(CCCCCCN1C[C@H](O)[C@@H](O)[C@H](O)[C@H]1CO)C1CCCCCC1 | > 50 | > 50
64 | CCC(Sc1nc2ccccc2o1)C(=O)Nc1nccs1 (stereo not drawn) | > 50 | 50 (≈ 16 µg/mL)
65 | CC(C)(C)c1ccc(N[C@@H]2CCCC[C@H]2NC(=O)c2ccco2)cc1 | > 50 | > 50
66 | CN1CCN(c2nccc3[nH]c(-c4cccc(F)c4)cc23)CC1 | > 50 | > 50
67 | CC(=O)NCC1CN(c2ccc(-c3ccc(CNCc4cn[nH]n4)cc3)c(F)c2)C(=O)O1 (stereo not drawn) | 6.25 (≈ 2.74 µg/mL) | 6.25 (≈ 2.74 µg/mL)
68 | CC(C)n1ncc2c(C(=O)NCC(c3cccs3)N3CCOCC3)cc(-c3ccccc3)nc21 (stereo not drawn) | > 50 | > 50
69 | COc1ccc(CN2CCOc3ccc(C(C)(O)CN(C)C)cc3C2)cc1C (stereo not drawn) | > 50 | > 50
